From PubChem BioAssay AID1259407 (Chemical Carcinogenesis Research Information System (CCRIS), 2018)
The source made the active and inactive calls. How the calls were made is not given here.

Test system: CCRIS mutagenicity, Ames/micronucleus/aberration tests
Assay: CCRIS mutagenicity studies
[1] = Test System: AMES SALMONELLA TYPHIMURIUM, Strain/Indicator: TA98, Metabolic Activation: NONE, Method: PREINCUBATION
[2] = Test System: AMES SALMONELLA TYPHIMURIUM, Strain/Indicator: TA98, Metabolic Activation: NONE, Method: STANDARD PLATE
[3] = Test System: AMES SALMONELLA TYPHIMURIUM, Strain/Indicator: TA98, Metabolic Activation: RAT, LIVER, S-9, AROCLOR 1254, Method: PREINCUBATION
[4] = Test System: AMES SALMONELLA TYPHIMURIUM, Strain/Indicator: TA98, Metabolic Activation: RAT, LIVER, S-9, AROCLOR 1254, Method: STANDARD PLATE
[5] = Test System: AMES SALMONELLA TYPHIMURIUM, Strain/Indicator: TA100, Metabolic Activation: NONE, Method: PREINCUBATION
[6] = Test System: AMES SALMONELLA TYPHIMURIUM, Strain/Indicator: TA100, Metabolic Activation: NONE, Method: STANDARD PLATE
[7] = Test System: AMES SALMONELLA TYPHIMURIUM, Strain/Indicator: TA100, Metabolic Activation: RAT, LIVER, S-9, AROCLOR 1254, Method: PREINCUBATION
[8] = Test System: AMES SALMONELLA TYPHIMURIUM, Strain/Indicator: TA100, Metabolic Activation: RAT, LIVER, S-9, AROCLOR 1254, Method: STANDARD PLATE
[9] = Test System: AMES SALMONELLA TYPHIMURIUM, Strain/Indicator: TA1535, Metabolic Activation: NONE, Method: STANDARD PLATE
[10] = Test System: AMES SALMONELLA TYPHIMURIUM, Strain/Indicator: TA1537, Metabolic Activation: NONE, Method: STANDARD PLATE
[11] = Test System: AMES SALMONELLA TYPHIMURIUM, Strain/Indicator: TA1538, Metabolic Activation: NONE, Method: STANDARD PLATE
[12] = Test System: AMES SALMONELLA TYPHIMURIUM, Strain/Indicator: TA98, Metabolic Activation: S-9, Method: STANDARD PLATE
[13] = Test System: AMES SALMONELLA TYPHIMURIUM, Strain/Indicator: TA100, Metabolic Activation: S-9, Method: STANDARD PLATE

SMILES: c1cnccn1
- mutagenic call (Test System: AMES SALMONELLA TYPHIMURIUM, Strain/Indicator: TA98, Metabolic Activation: HAMSTER, LIVER, S-9, AROCLOR 1254, Method: STANDARD PLATE): inactive; negative
- mutagenic call [1]: inactive; negative
- mutagenic call [2]: inactive; negative
- mutagenic call [3]: inactive; negative
- mutagenic call [4]: inactive; negative
- mutagenic call (Test System: AMES SALMONELLA TYPHIMURIUM, Strain/Indicator: TA98, Metabolic Activation: RAT, LIVER, S-9, PCB, Method: PREINCUBATION): inactive; negative
- mutagenic call (Test System: AMES SALMONELLA TYPHIMURIUM, Strain/Indicator: TA100, Metabolic Activation: HAMSTER, LIVER, S-9, AROCLOR 1254, Method: STANDARD PLATE): inactive; negative
- mutagenic call [5]: inactive; negative
- mutagenic call [6]: inactive; negative
- mutagenic call [7]: inactive; negative
- mutagenic call [8]: inactive; negative
- mutagenic call (Test System: AMES SALMONELLA TYPHIMURIUM, Strain/Indicator: TA100, Metabolic Activation: RAT, LIVER, S-9, PCB, Method: PREINCUBATION): inactive; negative
- mutagenic call (Test System: AMES SALMONELLA TYPHIMURIUM, Strain/Indicator: TA102, Metabolic Activation: NONE, Method: PREINCUBATION): inactive; negative
- mutagenic call (Test System: AMES SALMONELLA TYPHIMURIUM, Strain/Indicator: TA102, Metabolic Activation: RAT, LIVER, S-9, AROCLOR 1254, Method: PREINCUBATION): inactive; negative
- mutagenic call (Test System: AMES SALMONELLA TYPHIMURIUM, Strain/Indicator: TA1535, Metabolic Activation: HAMSTER, LIVER, S-9, AROCLOR 1254, Method: STANDARD PLATE): inactive; negative
- mutagenic call [9]: inactive; negative
- mutagenic call (Test System: AMES SALMONELLA TYPHIMURIUM, Strain/Indicator: TA1535, Metabolic Activation: RAT, LIVER, S-9, AROCLOR 1254, Method: STANDARD PLATE): inactive; negative
- mutagenic call (Test System: AMES SALMONELLA TYPHIMURIUM, Strain/Indicator: TA1537, Metabolic Activation: HAMSTER, LIVER, S-9, AROCLOR 1254, Method: STANDARD PLATE): inactive; negative
- mutagenic call [10]: inactive; negative
- mutagenic call (Test System: AMES SALMONELLA TYPHIMURIUM, Strain/Indicator: TA1537, Metabolic Activation: RAT, LIVER, S-9, AROCLOR 1254, Method: STANDARD PLATE): inactive; negative
- mutagenic call (Test System: AMES SALMONELLA TYPHIMURIUM, Strain/Indicator: TA1538, Metabolic Activation: HAMSTER, LIVER, S-9, AROCLOR 1254, Method: STANDARD PLATE): inactive; negative
- mutagenic call [11]: inactive; negative
- mutagenic call (Test System: AMES SALMONELLA TYPHIMURIUM, Strain/Indicator: TA1538, Metabolic Activation: RAT, LIVER, S-9, AROCLOR 1254, Method: STANDARD PLATE): inactive; negative
- mutagenic call (Test System: MOUSE LYMPHOMA, Strain/Indicator: L5178Y (TK+/TK-), Metabolic Activation: NONE, Method: SUSPENSION/PLATE): inactive; negative. reevaluation of results: negative
- mutagenic call (Test System: MOUSE LYMPHOMA, Strain/Indicator: L5178Y (TK+/TK-), Metabolic Activation: RAT, LIVER, S-9, AROCLOR 1254, Method: SUSPENSION/PLATE): inactive; negative. reevaluation of results: negative

SMILES: Nc1ccc(/C=C/c2ccc(N)cc2)cc1
- mutagenic call (Test System: AMES SALMONELLA TYPHIMURIUM, Strain/Indicator: TA98(1,8-DNP6), Metabolic Activation: NONE, Method: STANDARD PLATE): inactive; negative
- mutagenic call (Test System: AMES SALMONELLA TYPHIMURIUM, Strain/Indicator: TA98(1,8-DNP6), Metabolic Activation: S-9, Method: STANDARD PLATE): inactive; negative
- mutagenic call [2]: inactive; negative
- mutagenic call [4]: active; positive
- mutagenic call [12]: active; positive
- mutagenic call [6]: inactive; negative
- mutagenic call [8]: inactive; negative
- mutagenic call [13]: inactive; negative

SMILES: CC[C@@]1(O)C[C@H](O)c2c(cc3c(c2O)C(=O)c2c(O)cccc2C3=O)[C@H]1C(=O)OC
- mutagenic call [2]: active; positive
- mutagenic call [4]: active; positive
- mutagenic call [6]: inactive; negative
- mutagenic call [11]: inactive; negative

SMILES: Nc1ccc(Oc2ccc([N+](=O)[O-])cc2)cc1
- mutagenic call (Test System: AMES SALMONELLA TYPHIMURIUM, Strain/Indicator: TA98(NR), Metabolic Activation: NONE, Method: PREINCUBATION): inactive; negative
- mutagenic call (Test System: AMES SALMONELLA TYPHIMURIUM, Strain/Indicator: TA98(NR), Metabolic Activation: RAT, LIVER, S-9, AROCLOR 1254, Method: PREINCUBATION): active; positive
- mutagenic call [1]: active; positive
- mutagenic call [3]: active; positive
- mutagenic call (Test System: AMES SALMONELLA TYPHIMURIUM, Strain/Indicator: TA100(NR), Metabolic Activation: NONE, Method: PREINCUBATION): active; positive
- mutagenic call (Test System: AMES SALMONELLA TYPHIMURIUM, Strain/Indicator: TA100(NR), Metabolic Activation: RAT, LIVER, S-9, AROCLOR 1254, Method: PREINCUBATION): active; positive
- mutagenic call [5]: active; positive
- mutagenic call [7]: active; positive

SMILES: CCCNc1snc2ccccc12
- mutagenic call [2]: inactive; negative
- mutagenic call [12]: inactive; negative
- mutagenic call [6]: inactive; negative
- mutagenic call [13]: inactive; negative
- mutagenic call [9]: inactive; negative
- mutagenic call (Test System: AMES SALMONELLA TYPHIMURIUM, Strain/Indicator: TA1535, Metabolic Activation: S-9, Method: STANDARD PLATE): inactive; negative
- mutagenic call [10]: inactive; negative
- mutagenic call (Test System: AMES SALMONELLA TYPHIMURIUM, Strain/Indicator: TA1537, Metabolic Activation: S-9, Method: STANDARD PLATE): inactive; negative

SMILES: CC(=O)Nc1cc(N(CCOC(C)=O)CCOC(C)=O)ccc1N=Nc1ccc([N+](=O)[O-])cc1Cl
- mutagenic call (End Point: IN VITRO CHROMOSOMAL ABERRATIONS, Test System: CHL CELLS, Metabolic Activation: NONE): inactive; negative
- mutagenic call (End Point: IN VITRO CHROMOSOMAL ABERRATIONS, Test System: CHL CELLS, Metabolic Activation: RAT, LIVER, S-9, SODIUM PHENOBARBITAL AND 5,6-BENZOFLAVONE): inactive; negative

SMILES: C=Cc1ccc(O)c(C=C)c1
- mutagenic call [2]: inactive; negative
- mutagenic call [12]: inactive; negative
- mutagenic call [6]: inactive; negative
- mutagenic call [13]: inactive; negative

SMILES: CC(=O)c1cc(C(C)(C)C)cc2c1CCC2(C)C
- mutagenic call (Test System: AMES SALMONELLA TYPHIMURIUM, Strain/Indicator: TA97, Metabolic Activation: NONE, Method: STANDARD PLATE): inactive; negative
- mutagenic call (Test System: AMES SALMONELLA TYPHIMURIUM, Strain/Indicator: TA97, Metabolic Activation: RAT LIVER S-9, AROCLOR 1254, Method: STANDARD PLATE): inactive; negative
- mutagenic call [2]: inactive; negative
- mutagenic call (Test System: AMES SALMONELLA TYPHIMURIUM, Strain/Indicator: TA98, Metabolic Activation: RAT LIVER S-9, AROCLOR 1254, Method: STANDARD PLATE): inactive; negative
- mutagenic call [6]: inactive; negative
- mutagenic call (Test System: AMES SALMONELLA TYPHIMURIUM, Strain/Indicator: TA100, Metabolic Activation: RAT LIVER S-9, AROCLOR 1254, Method: STANDARD PLATE): inactive; negative
- mutagenic call (Test System: AMES SALMONELLA TYPHIMURIUM, Strain/Indicator: TA102, Metabolic Activation: NONE, Method: STANDARD PLATE): inactive; negative
- mutagenic call (Test System: AMES SALMONELLA TYPHIMURIUM, Strain/Indicator: TA102, Metabolic Activation: RAT LIVER S-9, AROCLOR 1254, Method: STANDARD PLATE): inactive; negative
